Patent US6417167B1, “Lyophilized compositions containing shingoglycolipid and process for preparing them” (Kirin Beer Kabushiki Kaisha, priority 1997, dated 2002)
In brackets after ≈: the same amount, converted by molar mass. Read-outs that look alike come from different tables or passages of the source.

Assays:
Assay type in all cases: physicochemical
[1] = Selection of a solvent for the active component: solubility judged by naked eye; details: thermodynamic from solid, read-out: Judgment of solubility (by naked eye)
Experimental: First, 1 mg of the active component (KRN7000) was weighed and stirred in 100 ml of a variety of solvents (Table 3) in a heated bath to 80° C. for 20 minutes in order to form a solution having a concentration of 10 μg/ml. With respect to the solvents which were judged to have successfully dissolved 10 μg/ml of the active component, dissolution was further tried in the same manner as above in order to form a solution having a concentration of 100 μg/ml. With respect to the solvents which were judged to have successfully dissolved 100 μg/ml of the active component, dissolution was further tried in the same manner as above in order to form a solution having a concentration of 200 μg/ml. After cooling with running water, the solubility of the component was judged.
The solubility of the component was judged by the test described below. First, transparent colorless glass vials having a volume of 5 ml were charged with about 1.5 ml portion of each sample and sealed up. The vial was cleaned outside and placed beneath the white light source in a darkroom for observation with naked eye at the position of a luminous intensity of about 5,000 lux. When the sample was clear with no precipitates, it was judged that the active component was dissolved.

[2] = Optimal amount of Polysorbate 20: solubility of solutions after storage, by naked eye; design: key: +: not dissolved (or deposited); −: dissolved; details: KRN7000 200 μg/ml, stored as solution 25° C.
Experimental: Next, 20 mg of the active component (KRN7000) was weighed and stirred in 100 ml of the Polysorbate solutions having a variety of concentrations in a heated bath at 80° C. for 20 minutes in order to form a solution. After cooling with running water, the mixture was filtered through a 0.22 μm filter, and transparent colorless glass vials having a volume of 5 ml were charged with a 2 ml portion of each of a variety of solutions and sealed up.
These samples were stored at 25° C. for 2 weeks, and judged of their solubility. The samples judged in solution were further stored, and judged again of their solubility after 1 month.
(§1) The solubility was judged by cleaning the outside of the vial and placing it beneath the white light source in the darkroom for observation with naked eye at the position of a luminous intensity of about 5,000 lux. When the sample was clear with no precipitates, it was judged that the active component was dissolved.
In the table, the variations with the passage of time after storage represent the solubility when stored in the form of solution.

[3] = Excipient appropriate to lyophilization 1: re-solubility immediately after lyophilization; details: KRN7000 200 μg/ml, Polysorbate 20 0.5%
Experimental: A variety of monosaccharides and disaccharides were used for examination of excipients of the lyophilized preparation. In this context, the active component (KRN7000) was set at the concentration of 200 μg/ml, and Polysorbate 20 which is used only in a limited amount from the viewpoint of safety was set at the concentration of 0.5% in the following examination.
First, Polysorbate 20 was dissolved in distilled water in a concentration of 0.5%, and the saccharides were dissolved in such concentrations as listed in Table 6. Next, 20 mg of the active component (KRN7000) was weighed and stirred in 100 ml of the solvents in a heated bath to 80° C. for 20 minutes in order to form a solution. After cooling with running water, the mixture was filtered through a 0.22 μm filter, and transparent colorless glass vials having a volume of 5 ml were charged with a 1 ml portion of each of a variety of solutions thus obtained and subjected to lyophilization. Lyophilization was carried out under the condition of preliminary freezing at −40° C. for 2 hours and drying at −20° C. for 24 hours, 10° C. for 12 hours, and finally at 25° C. for 5 hours to give the lyophilized product. The degree of vacuum was set at 0.1 Torr or less during drying step.
After the lyophilization step, the lyophilized composition was reconstituted in 1 ml of distilled water for injection, left standing for 30 minutes, and solubility was judged when the foams generated on reconstitution disappeared.
as §1, with “in a” for “in the”

SMILES: CCCCCCCCCCCCCCCCCCCCCCCCCC(=O)N[C@@H](CO[C@H]1O[C@H](CO)[C@H](O)[C@H](O)[C@H]1O)[C@H](O)[C@H](O)CCCCCCCCCCCCCC [KRN7000, (2S,3S,4R)-1-(α-D-galactopyranosyloxy)-2-hexacosanoylamino-3,4-octadecanediol]
- solubility at 20 min ([1]; 0.5% Cremophor, 80 °C, aqueous with cosolvent or surfactant or cyclodextrin, solvent 0.5% Cremophor, KRN7000 10 μg/ml): < 10 µg/mL
- solubility at 20 min ([1]; 0.5% HCO 50, 80 °C, aqueous with cosolvent or surfactant or cyclodextrin, solvent 0.5% HCO 50, KRN7000 10 μg/ml): < 10 µg/mL
- solubility at 20 min ([1]; 0.5% HCO 60, 80 °C, aqueous with cosolvent or surfactant or cyclodextrin, solvent 0.5% HCO 60, KRN7000 10 μg/ml): < 10 µg/mL
- solubility at 20 min ([1]; 0.5% Polyoxamer 188, 80 °C, aqueous with cosolvent or surfactant or cyclodextrin, solvent 0.5% Polyoxamer 188, KRN7000 10 μg/ml): < 10 µg/mL
- solubility at 20 min ([1]; 0.5% Polysorbate 20, 80 °C, aqueous with cosolvent or surfactant or cyclodextrin, solvent 0.5% Polysorbate 20, KRN7000 10 μg/ml): > 10 µg/mL
- solubility at 20 min ([1]; 0.5% Polysorbate 20, 80 °C, aqueous with cosolvent or surfactant or cyclodextrin, solvent 0.5% Polysorbate 20, KRN7000 100 μg/ml): > 100 µg/mL
- solubility at 20 min ([1]; 0.5% Polysorbate 20, 80 °C, aqueous with cosolvent or surfactant or cyclodextrin, solvent 0.5% Polysorbate 20, KRN7000 200 μg/ml): > 200 µg/mL
- solubility at 20 min ([1]; 0.5% Polysorbate 80, 80 °C, aqueous with cosolvent or surfactant or cyclodextrin, solvent 0.5% Polysorbate 80, KRN7000 10 μg/ml): > 10 µg/mL
- solubility at 20 min ([1]; 0.5% Polysorbate 80, 80 °C, aqueous with cosolvent or surfactant or cyclodextrin, solvent 0.5% Polysorbate 80, KRN7000 100 μg/ml): 10 to 100 µg/mL (≈ 11.7 to 117 µM)
- solubility at 20 min ([1]; 1N HCl, 80 °C, simulated gastric fluid, solvent 1N HCl, KRN7000 10 μg/ml): < 10 µg/mL
- solubility at 20 min ([1]; 1N NaOH, 80 °C, aqueous buffer, solvent 1N NaOH, KRN7000 10 μg/ml): < 10 µg/mL
- solubility at 20 min ([1]; Distilled water, 80 °C, water, solvent Distilled water, KRN7000 10 μg/ml): < 10 µg/mL
- solubility at 20 min ([1]; Ethanol, 80 °C, organic solvent or mixture, solvent Ethanol, KRN7000 10 μg/ml): > 10 µg/mL
- solubility at 20 min ([1]; Ethanol, 80 °C, organic solvent or mixture, solvent Ethanol, KRN7000 100 μg/ml): > 100 µg/mL
- solubility at 20 min ([1]; Ethanol, 80 °C, organic solvent or mixture, solvent Ethanol, KRN7000 200 μg/ml): > 200 µg/mL
- solubility at 20 min ([1]; Glycerol, 80 °C, organic solvent or mixture, solvent Glycerol, KRN7000 10 μg/ml): > 10 µg/mL
- solubility at 20 min ([1]; Glycerol, 80 °C, organic solvent or mixture, solvent Glycerol, KRN7000 100 μg/ml): 10 to 100 µg/mL (≈ 11.7 to 117 µM)
- solubility at 20 min ([1]; Macrogol 400, 80 °C, organic solvent or mixture, solvent Macrogol 400, KRN7000 10 μg/ml): > 10 µg/mL
- solubility at 20 min ([1]; Macrogol 400, 80 °C, organic solvent or mixture, solvent Macrogol 400, KRN7000 100 μg/ml): 10 to 100 µg/mL (≈ 11.7 to 117 µM)
- solubility at 20 min ([1]; Propylene glycol, 80 °C, organic solvent or mixture, solvent Propylene glycol, KRN7000 10 μg/ml): > 10 µg/mL
- solubility at 20 min ([1]; Propylene glycol, 80 °C, organic solvent or mixture, solvent Propylene glycol, KRN7000 100 μg/ml): 10 to 100 µg/mL (≈ 11.7 to 117 µM)
- Variation with the passage of time after storage (by naked eye) ([2]; Polysorbate 20 0.1%, 2 weeks): +
- Variation with the passage of time after storage (by naked eye) ([2]; Polysorbate 20 0.2%, 2 weeks): +
- Variation with the passage of time after storage (by naked eye) ([2]; Polysorbate 20 0.3%, 1 month): +
- Variation with the passage of time after storage (by naked eye) ([2]; Polysorbate 20 0.3%, 2 weeks): −
- Variation with the passage of time after storage (by naked eye) ([2]; Polysorbate 20 0.5%, 1 month): +
- Variation with the passage of time after storage (by naked eye) ([2]; Polysorbate 20 0.5%, 2 weeks): −
- Variation with the passage of time after storage (by naked eye) ([2]; Polysorbate 20 1.0%, 1 month): +
- Variation with the passage of time after storage (by naked eye) ([2]; Polysorbate 20 1.0%, 2 weeks): −
- Variation with the passage of time after storage (by naked eye) ([2]; Polysorbate 20 2.0%, 1 month): +
- Variation with the passage of time after storage (by naked eye) ([2]; Polysorbate 20 2.0%, 2 weeks): −
- Variation with the passage of time after storage (by naked eye) ([2]; Polysorbate 20 4.0%, 1 month): +
- Variation with the passage of time after storage (by naked eye) ([2]; Polysorbate 20 4.0%, 2 weeks): −
- Variation with the passage of time after storage (by naked eye) ([2]; Polysorbate 20 8.0%, 1 month): +
- Variation with the passage of time after storage (by naked eye) ([2]; Polysorbate 20 8.0%, 2 weeks): −
- Re-solubility immediately after lyophilization ([3]; excipient Fructose 5%): + (not dissolved (or deposited))
- Re-solubility immediately after lyophilization ([3]; excipient Fructose 10%): + (not dissolved (or deposited))
- Re-solubility immediately after lyophilization ([3]; excipient Glucose 5%): − (dissolved)
- Re-solubility immediately after lyophilization ([3]; excipient Glucose 10%): + (not dissolved (or deposited))
- Re-solubility immediately after lyophilization ([3]; excipient Lactose 5%): + (not dissolved (or deposited))
- Re-solubility immediately after lyophilization ([3]; excipient Lactose 10%): + (not dissolved (or deposited))
- Re-solubility immediately after lyophilization ([3]; excipient Maltose 1.5%): + (not dissolved (or deposited))
- Re-solubility immediately after lyophilization ([3]; excipient Maltose 3%): + (not dissolved (or deposited))
- Re-solubility immediately after lyophilization ([3]; excipient Mannitol 5%): + (not dissolved (or deposited))
- Re-solubility immediately after lyophilization ([3]; excipient Mannitol 10%): − (dissolved)
- Re-solubility immediately after lyophilization ([3]; excipient Sorbitol 5%): + (not dissolved (or deposited))
- Re-solubility immediately after lyophilization ([3]; excipient Sorbitol 10%): + (not dissolved (or deposited))
- Re-solubility immediately after lyophilization ([3]; excipient Sucrose 4.8%): − (dissolved)
- Re-solubility immediately after lyophilization ([3]; excipient Sucrose 9.6%): − (dissolved)
- Re-solubility immediately after lyophilization ([3]; excipient Xylitol 4.3%): + (not dissolved (or deposited))
- Re-solubility immediately after lyophilization ([3]; excipient Xylitol 8.6%): + (not dissolved (or deposited))
